Reference: patent US20180312539A1, “METHODS FOR PREPARING HIGH THROUGHPUT PEPTIDOMIMETICS, ORALLY BIOAVAILABLE DRUGS AND COMPOSITIONS CONTAINING SAME” (University of Southern California, priority 2011, published 2018)

What was measured:
Human microsome digests = type: in vitro ADME
Experimental: Pooled, mixed gender human microsomes containing cytochrome P450's were obtained from Xenotech. 100 μL of microsomes were added to 500 of PBS buffer containing 250 nmoles of peptide with 1% DMSO. 50 μL aliquots were removed at various time points and worked up in the same manner as the human serum digests.
Another vital area for the in vivo processing of drugs is the liver. All blood is eventually filtered through the liver, where various types of enzymes functionalize drugs for the purpose of excretion. […] These enzymes are largely involved in the oxidation of drugs, and can be found on the […]. Human liver microsomes are functional liver extract containing cytochrome P450s. Therefore half-life of modification of peptides by cytochrome P450s from exposure to human microsomes was examined. The results were similar to the human serum result in that both cyclization and N-methylation were necessary for significant enhancement of resistance to modification. […] This is interesting because the trait of protease resistance, not resistance to cytochrome P450 modification was a selection criteria.
A similar experiment was performed analyzing protease resistance to cytochrome P450 degradation. Peptide was incubated with human liver microsomes at 37° C. All peptides were highly protease resistant. […]

[1] = mouse, iv
Experimental: 200 μL of peptide was administered by IV injection into the tail vein of C57BL6 mice at a dose of 10 mg/kg. 50 μL blood samples were taken at various time points by orbital bleeding using heparin coated capillary tubes and isoflurane for anesthesia. Samples are diluted to 600 μLin TE buffer (pH=8.0) then filtered by centrifugation through a 3000 MWCO filter. The flowthrough was analyzed on a Shimadzu RF-5301 PC fluorometer. Time points were integrated and analyzed using Prism 5.0 software.
To that end mice were administered peptide conjugated to fluorescein by IV injection into the tail vein. Blood samples were taken by orbital bleeding. Blood peptide concentration was determined by comparing fluorescence to a 15 minute time point.

chymotrypsin = target: T1, chymotrypsin (Bos taurus, UniProt P00766); assay: Protease resistance experiment, chymotrypsin digest; type: in vitro ADME
T1 construct: purchased Sigma
Experimental: Immobilized chymotrypsin and proteinase K purchased from Sigma.
Protease resistance enhancement was then tested.
Towards that end, three peptides were synthesized. […] The effects were dramatic and surprising.

Human serum digests = type: in vitro ADME; details: reconstituted human serum, 37° C
Experimental: (§1) Delipidated/lyophilized human serum was purchased from Thermo Scientific and reconstituted as per manufacturer's instructions. 250 nmoles of peptide in 50 μLs of sodium phosphate buffer (pH=8.0) with 10% DMSO was added to 1 mL of reconstituted serum and incubated at 37° C. 100 μL aliquots were taken at various time points and quenched in 300 μLs of acetonitrile. Samples were spun down and decanted to remove precipitate followed by dilution in water to 1.5 mLs. Samples were then analyzed by HPLC as described in the protease resistance experiment.
as §1, with “μL” for “μLs”, “mLs.” for “mLs. Samples were then analyzed by HPLC as described in the protease resistance experiment.”
The human serum and human microsome stability of the Gαi1 binding SUPR peptide ([…] (SEQ ID NO: 7)) were compared to the peptides ability to bind to Her-2. Beginning with the human serum analysis, peptides were digested with 95% human serum at 37° C. Analysis was performed by HPLC. […] Therefore, intact peptide is only completely unmodified peptide. Digestions of SUPR, HMP, and PMP are show have lives very similar to SUPR. Digestion of PMP2 is in progress. Without being bound by theory, Applicants theorize that the fitting for HMP may have produced an artificially low half-life.

Gαi1 = target: T2, Gαi1 (Homo sapiens, UniProt P63096); assay: TNT pulldown specificity analysis with radiolabeled Gα subunits; type: binding; details: C-terminally biotinylated peptide on NeutrAvidin-agarose
T2 construct: made in house; host or cells: TNT (coupled in vitro transcription/translation), radiolabeled
Experimental: TNT pulldown experiments were carried out as previously described in Stoop and Craik (2003) Nat. Biotech 21:1063. […] Control NeutrAvidin-agarose was treated with DMSO alone. Binding reactions proceeded for 1 h at 4° C. followed by filtration and washing with 1× selection buffer. The matrix was analyzed by scintillation counting, and the percent bound was determined by the matrix counts divided by the total counts as determined by TCA precipitation. […] The peptide was immobilized on NeutrAvidin-agarose and used to pull down radiolabeled protein. […] This was true both for specificity within the Gα family as well as state specificity of Gαi1. In fact, there was a small enhancement of specificity for the target Gαi1 over a protein with nearly 85% sequence similarity, Gαi2. […] The ability to retain or enhance selectivity for a desired target is of tremendous importance for therapeutic and diagnostic development.

proteinase K = proteinase K (Parengyodontium album, UniProt P06873)
Experimental: Immobilized chymotrypsin and proteinase K purchased from Sigma. 250 nmoles of peptide in DMSO were added to 50 mM sodium phosphate buffer (pH=8.0) with a final DMSO concentration of 2%. […] The graph was generated by fitting the data to a one phase exponential decay equation (GraphPad Prism 5.0).
Protease resistance enhancement was then tested. The simplest solution for enhancing protease resistance would be the removal of amino acids recognized by protease K and chymotrypsin.
Next the role of each of the N-methyl alanines was analyzed independently. […] For example sequence modifications, including N-methylation would be accomplished one amino acid at a time, walking the peptide from low protease stability to high stability. Whether this is a viable approach for making a peptide like SUPR was investigated. Towards that end, Applicants walked back from SUPR peptide to something closer to cycGIBP, and to determine if there was a gradual decrease in protease resistance. Towards that end, three peptides were synthesized. Two of them contained only one NMA (alanine was substituted for NMA), and the other had no NMA. It was hypothesized that if one could walk back to cycGIBP, then one would expect the loss of a single N-methyl to have some effect on reducing protease resistance, but to still be better than cycGIBP.

Sequence of proteinase K (P06873 106-384): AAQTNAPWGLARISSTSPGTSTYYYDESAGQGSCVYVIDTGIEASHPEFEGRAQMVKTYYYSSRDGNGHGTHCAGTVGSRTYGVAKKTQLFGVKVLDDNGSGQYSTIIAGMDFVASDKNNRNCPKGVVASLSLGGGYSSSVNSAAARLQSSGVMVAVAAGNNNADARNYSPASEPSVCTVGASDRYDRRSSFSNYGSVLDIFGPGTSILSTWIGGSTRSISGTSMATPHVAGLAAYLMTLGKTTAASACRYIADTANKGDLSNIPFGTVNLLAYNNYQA
T2 sequence (P63096 whole entry): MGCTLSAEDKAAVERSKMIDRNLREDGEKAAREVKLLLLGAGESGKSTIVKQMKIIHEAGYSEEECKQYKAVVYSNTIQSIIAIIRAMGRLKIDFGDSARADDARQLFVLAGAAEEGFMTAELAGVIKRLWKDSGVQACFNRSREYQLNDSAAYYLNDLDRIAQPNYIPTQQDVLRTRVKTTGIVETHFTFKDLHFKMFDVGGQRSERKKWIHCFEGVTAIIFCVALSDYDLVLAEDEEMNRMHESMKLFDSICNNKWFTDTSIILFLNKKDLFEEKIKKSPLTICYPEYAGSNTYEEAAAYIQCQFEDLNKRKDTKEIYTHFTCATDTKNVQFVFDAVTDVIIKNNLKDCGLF

For `CSCC[C@@H]1NC(=O)CCCC(=O)NCCCC[C@@H](C(N)=O)NC(=O)[C@H](CO)NC(=O)[C@H](Cc2c[nH]c3ccccc23)NC(=O)[C@H](CCC(N)=O)NC(=O)[C@H](C)N(C)C(=O)[C@H](Cc2ccc(O)cc2)NC(=O)[C@H](CCC(=O)O)NC(=O)[C@H](Cc2ccc(O)cc2)NC(=O)[C@H](C)N(C)C(=O)[C@H](Cc2ccc(O)cc2)NC(=O)[C@H](Cc2ccccc2)NC1=O` [cycSUPR], the “resistance to cytochrome P450 degradation” value (Human microsome digests; human liver microsomes, 37° C (Experiment No. 4)) was “more preotease resistant than the Her-2 binding peptides”, the “stability to human liver microsomes (cytochrome P450s)” value (Human microsome digests; versus cycGIBP or linSUPR) was “nearly an order of magnitude increase in stability” and the “fold increase in in vivo half-life over cycGIBP” value [1] was “roughly 35 fold”. The “fold more resistant to chymotrypsin” value (chymotrypsin; compared to CycGIBP) was about 200 fold, the “digest sites found from chymotrypsin” value (chymotrypsin; five theoretical digest sites) was “two” and the half-life (Human serum digests) was 160 h. The “specificity within the Gα family and state specificity of Gαi1” value (Gαi1) was “retained specificity of its parent molecule”, the “fold more resistant to proteinase K” value (proteinase K) was “approximately 5200 fold” and the “digest sites found from proteinase K” value (proteinase K; seven theoretical digest sites) was 1.
